Data from US20230277632A1, “MODIFIED PlySs2 LYSINS AND ANTIBIOTIC COMBINATIONS FOR USE AGAINST GRAM-POSITIVE BACTERIA” (ContraFect Corporation, priority 2020, published 2023).
Values after ≈ are worked out from the molar mass of the structure shown. Values joined by “and” are separate entries in the source; they are usually repeats but may differ in a detail not shown here. Equal values may be shown once.

Assays:
S. aureus isolates [1] = assay: MIC determination (broth microdilution) against 8 S. aureus isolates; type: cell-based; settings: CAMHB, unit assumed
Method: Suitable methods for assessing the activity of a modified lysin polypeptide as disclosed herein are well known in the art and described in the examples. […] For example, MIC values for a modified lysin polypeptide may be determined against e.g., laboratory Staphylococcus aureus strains, in e.g., Mueller-Hinton broth or Mueller-Hinton broth supplemented with serum, such as horse serum.
The pp296 MICs were determined based on (1) cation-adjusted Mueller-Hinton Broth with 25% horse serum and 0.5 mM DTT (caMHB-HSD); (2) human serum (100% serum); and (3) ICR mice (100% serum). Vancomycin and daptomycin MICs of the isolate strains were determined in accordance with the broth microdilution method as outlined by CLSI. Results of the MIC determination are shown below in Table 2. The bacterial isolates were frozen at −80° C. in skim milk.

S. aureus isolates [2] = assay: In vivo efficacy of vancomycin in combination with pp296, neutropenic murine thigh infection model; settings: 24 h; for Replicate Log10 CFU/thigh data: listed as VAN
Method: (§1) Study animals: Specific pathogen-free female ICR mice (average body weight 23 grams) were provided food and water ad libitum and maintained and used in accordance with National Research Council recommendations. Animals were allowed a 48-hour post-delivery acclimation period before every experiment. Mice were rendered transiently neutropenic by injection of cyclophosphamide via intraperitoneal (IP) route at a dose of 150 mg/kg of body weight at four days before bacterial inoculation and 100 mg/kg of body weight at one day before bacterial inoculation.
Neutropenic Thigh Infection Model: Two transfers of the bacterial isolates were performed onto trypticase soy agar plates with 5% sheep blood and placed into an incubator at 37° C. for approximately 24 hours. After an 18-24 hour incubation of the second transfer, a suspension of approximately 10^7 CFU/mL was made for inoculation. Final bacterial inoculum concentrations were confirmed by serial dilution and plating techniques. Thigh infection with the test isolate was produced by intramuscular injection of 0.1 mL of the bacterial inoculum into each thigh of the mice. Antimicrobial therapy was initiated 2 hours after bacterial inoculation, as detailed below. […]
Untreated control mice (n=3) were sacrificed just prior to antibiotic administration and 24 hours after bacterial inoculation. Animals sacrificed prior to antibiotic initiation served as 0-hour control animals, representing initial bacterial burden. […] Treatment mice (n=3/group) were sacrificed at the end of the 24 hour treatment period. After sacrifice, both thighs for each mouse were homogenized in normal saline. Serial dilutions were plated on Trypticase soy agar with 5% sheep blood and incubated for 18 to 20 hours at 37.0 to determine the CFU. Efficacy was calculated as the change in bacterial density obtained in treated mice after 24 hours compared with the numbers in the 0-hour control animals. Bacterial density represents the average CFU determined from 3 mice, each contributing 2 thighs.

S. aureus isolates [3] = assay: Vancomycin dose-ranging, neutropenic murine thigh infection model; type: in vivo; settings: 24 h
Method: as §1
Neutropenic Thigh Infection Model: Two transfers of the bacterial isolates were performed onto trypticase soy agar plates with 5% sheep blood and placed into an incubator at 37° C. for approximately 24 hours. After an 18-24 hour incubation of the second transfer, a suspension of approximately 10^7 CFU/mL was made for inoculation. Final bacterial inoculum concentrations were confirmed by serial dilution and plating techniques. Thigh infection with the test isolate was produced by intramuscular injection of 0.1 mL of the bacterial inoculum into each thigh of the mice. […]
Two hours post-bacterial inoculation, one group of mice (n=3) was sacrificed to serve as a 0 hour control, representing initial bacterial burden in the thigh, wherein bacterial burden is determined as the average CFU from 6 thighs, i.e., 2 thighs per mouse. […]

S. aureus = assay: pp296 dose fractionation study, neutropenic murine thigh infection model; type: in vivo; settings: vancomycin 3 mg/kg Q12h SC alone, 24 h
Method: Each of the pp296 TDDs was fractionated into three regimens, i.e., one-third of the entire dose was administered via IV three times (q8h); one-half of the entire does was administered via IV two times (q12h), or the entire dose was administered via IV once daily over a 24-hour period, for a total of three groups per each TDD.
Untreated control mice (n=3/group) were sacrificed just prior to antibiotic administration, as well as 24 hours later. Animals sacrificed prior to antibiotic administration served as 0-hour control animals, representing initial bacterial burden. The 24-hour control animals received sterile normal saline in the same volume and schedule as the most frequent active drug regimen. […] After the 24-hour treatment period, all animals were euthanized and thighs were cultured quantitatively as described above. The change in bacterial density was calculated for each of the dosing regimen. Comparisons were made between the different regimens of the same total daily dose on bacterial burdens at 24 hours using one-way Analysis of Variance (ANOVA) test followed by Tukey's test where the P value was 0.05.

CN[C@H](CC(C)C)C(=O)N[C@H]1C(=O)N[C@@H](CC(N)=O)C(=O)N[C@H]2C(=O)N[C@H]3C(=O)N[C@H](C(=O)N[C@H](C(=O)O)c4cc(O)cc(O)c4-c4cc3ccc4O)[C@H](O)c3ccc(c(Cl)c3)Oc3cc2cc(c3O[C@@H]2O[C@H](CO)[C@@H](O)[C@H](O)[C@H]2O[C@H]2C[C@](C)(N)[C@H](O)[C@H](C)O2)Oc2ccc(cc2Cl)[C@H]1O [Vancomycin, vancomycin]
MIC Vancomycin (CAMHB) (S. aureus isolates [1]; ATCC 29213 MSSA): 1 µg/mL (≈ 0.69 µM)
MIC Vancomycin (CAMHB) (S. aureus isolates [1]; CAIRD426 MRSA): 1 µg/mL (≈ 0.69 µM)
MIC Vancomycin (CAMHB) (S. aureus isolates [1]; HPV107 MRSA): 1 µg/mL (≈ 0.69 µM)
MIC Vancomycin (CAMHB) (S. aureus isolates [1]; JMI227 MRSA): 1 µg/mL (≈ 0.69 µM)
MIC Vancomycin (CAMHB) (S. aureus isolates [1]; JMI4789 MRSA): 1 µg/mL (≈ 0.69 µM)
MIC Vancomycin (CAMHB) (S. aureus isolates [1]; NRS100 (COL) MRSA): 1 µg/mL (≈ 0.69 µM)
MIC Vancomycin (CAMHB) (S. aureus isolates [1]; NRS123 (MW2) MRSA): 1 µg/mL (≈ 0.69 µM)
MIC Vancomycin (CAMHB) (S. aureus isolates [1]; NRS271 MRSA/LRSA): 1 µg/mL (≈ 0.69 µM)
Replicate Log10 CFU/thigh data (S. aureus isolates [2]; ATCC2921, VAN 3 mg/kg alone): 4.59 Log10 CFU/thigh and 4.96 Log10 CFU/thigh and 7.87 Log10 CFU/thigh and 5.18 Log10 CFU/thigh and 7.18 Log10 CFU/thigh and 6.03 Log10 CFU/thigh
Replicate Log10 CFU/thigh data (S. aureus isolates [2]; CAIRD426, VAN 1.5 mg/kg alone): 6.89 Log10 CFU/thigh and 6.51 Log10 CFU/thigh and 7.97 Log10 CFU/thigh and 8.04 Log10 CFU/thigh
Replicate Log10 CFU/thigh data (S. aureus isolates [2]; CAIRD426, VAN 3 mg/kg alone, Run #1): 4.81 Log10 CFU/thigh and 7.53 Log10 CFU/thigh and 6.53 Log10 CFU/thigh
Replicate Log10 CFU/thigh data (S. aureus isolates [2]; CAIRD426, VAN 3 mg/kg alone, Run #2): 7.82 Log10 CFU/thigh and 8.21 Log10 CFU/thigh and 7.74 Log10 CFU/thigh and 7.40 Log10 CFU/thigh and 7.47 Log10 CFU/thigh and 7.20 Log10 CFU/thigh
Replicate Log10 CFU/thigh data (S. aureus isolates [2]; HPV107, VAN 1.5 mg/kg alone): 8.44 Log10 CFU/thigh and 8.20 Log10 CFU/thigh and 8.00 Log10 CFU/thigh and 7.87 Log10 CFU/thigh and 8.32 Log10 CFU/thigh
Replicate Log10 CFU/thigh data (S. aureus isolates [2]; HPV107, VAN 3 mg/kg alone, Run #1): 7.50 Log10 CFU/thigh and 7.81 Log10 CFU/thigh and 7.24 Log10 CFU/thigh and 7.40 Log10 CFU/thigh and 7.36 Log10 CFU/thigh and 6.51 Log10 CFU/thigh
Replicate Log10 CFU/thigh data (S. aureus isolates [2]; HPV107, VAN 3 mg/kg alone, Run #2): 7.49 Log10 CFU/thigh and 7.73 Log10 CFU/thigh and 5.45 Log10 CFU/thigh
Replicate Log10 CFU/thigh data (S. aureus isolates [2]; JMI227, VAN 3 mg/kg alone): 7.50 Log10 CFU/thigh and 6.17 Log10 CFU/thigh and 8.04 Log10 CFU/thigh and 8.21 Log10 CFU/thigh and 8.47 Log10 CFU/thigh and 7.51 Log10 CFU/thigh
Replicate Log10 CFU/thigh data (S. aureus isolates [2]; JMI4789, VAN 3 mg/kg alone): 8.41 Log10 CFU/thigh and 8.01 Log10 CFU/thigh and 6.93 Log10 CFU/thigh (2×) and 4.92 Log10 CFU/thigh
Replicate Log10 CFU/thigh data (S. aureus isolates [2]; NRS100, VAN 1.5 mg/kg alone): 6.30 Log10 CFU/thigh and 4.89 Log10 CFU/thigh and 4.85 Log10 CFU/thigh and 4.30 Log10 CFU/thigh and 4.69 Log10 CFU/thigh and 6.73 Log10 CFU/thigh
Replicate Log10 CFU/thigh data (S. aureus isolates [2]; NRS100, VAN 3 mg/kg alone, Run #1): 4.58 Log10 CFU/thigh (2×) and 4.90 Log10 CFU/thigh and 4.89 Log10 CFU/thigh and 4.48 Log10 CFU/thigh and 4.56 Log10 CFU/thigh
Replicate Log10 CFU/thigh data (S. aureus isolates [2]; NRS100, VAN 3 mg/kg alone, Run #2): 4.75 Log10 CFU/thigh and 6.89 Log10 CFU/thigh and 4.70 Log10 CFU/thigh and 4.58 Log10 CFU/thigh and 4.83 Log10 CFU/thigh and 6.46 Log10 CFU/thigh
Replicate Log10 CFU/thigh data (S. aureus isolates [2]; NRS123, VAN 3 mg/kg alone): 7.17 Log10 CFU/thigh and 7.02 Log10 CFU/thigh and 7.77 Log10 CFU/thigh and 8.38 Log10 CFU/thigh and 8.32 Log10 CFU/thigh and 8.01 Log10 CFU/thigh
Replicate Log10 CFU/thigh data (S. aureus isolates [2]; NRS217, VAN 1.5 mg/kg alone): 7.60 Log10 CFU/thigh and 8.28 Log10 CFU/thigh and 8.26 Log10 CFU/thigh and 7.90 Log10 CFU/thigh and 6.43 Log10 CFU/thigh and 7.61 Log10 CFU/thigh
Replicate Log10 CFU/thigh data (S. aureus isolates [2]; NRS217, VAN 3 mg/kg alone, Run #1): 6.66 Log10 CFU/thigh and 6.70 Log10 CFU/thigh and 7.23 Log10 CFU/thigh and 6.68 Log10 CFU/thigh and 7.60 Log10 CFU/thigh and 6.55 Log10 CFU/thigh
Replicate Log10 CFU/thigh data (S. aureus isolates [2]; NRS217, VAN 3 mg/kg alone, Run #2): 7.06 Log10 CFU/thigh and 7.38 Log10 CFU/thigh and 5.26 Log10 CFU/thigh and 4.73 Log10 CFU/thigh and 6.82 Log10 CFU/thigh
Replicate Log10 CFU/thigh data (S. aureus isolates [2]; isolate HPV107, VAN 5 mg/kg q12h SC alone): 4.73 Log10 CFU/thigh and 8.28 Log10 CFU/thigh and 4.75 Log10 CFU/thigh and 4.88 Log10 CFU/thigh
Replicate Log10 CFU/thigh data (S. aureus isolates [2]; isolate NRS100, VAN 5 mg/kg q12h SC alone): 4.68 Log10 CFU/thigh (2×) and 4.78 Log10 CFU/thigh (2×) and 4.56 Log10 CFU/thigh and 4.73 Log10 CFU/thigh
Replicate Log10 CFU/thigh data (S. aureus isolates [2]; isolate NRS217, VAN 5 mg/kg q12h SC alone): 4.64 Log10 CFU/thigh and 6.13 Log10 CFU/thigh and 4.76 Log10 CFU/thigh and 4.56 Log10 CFU/thigh and 4.75 Log10 CFU/thigh
average bacterial growth vs starting inoculum (S. aureus isolates [2]; vancomycin 1.5 mg/kg Q12h SC alone, 4 isolates): 2.75±0.52 log10 CFU/thigh
average bacterial reduction vs starting inoculum (S. aureus isolates [2]; vancomycin 5 mg/kg q12h SC alone, 4 isolates): −0.38±1.10 log10 CFU/thigh
bacterial burden reduction vs 0-hour controls (S. aureus isolates [3]; upper end of dose-response, vancomycin 3.125-25 mg/kg q12h SC, all isolates): −1.15±0.40 log10 CFU/thigh
mean bacterial burden change vs 0-hour controls (S. aureus isolates [3]; vancomycin 3.125 mg/kg q12h SC, mean of 8 isolates): −0.05±1.16 log10 CFU/thigh
bacterial burden vs 0-hour control mice (S. aureus): 0.41±0.62 log10 CFU/thigh
